Test results reported in ChEMBL document CHEMBL1133784, “Inhibition of hepatitis C virus NS3 protease activity by product-based peptides is dependent on helicase domain” (Bioorg Med Chem Lett, 2001).
Where a SMILES comes first, the peptide text is derived from it. [ ]: non-standard residue; d: D form. Dip = N[C@H](C(=O)O)C(c1ccccc1)c1ccccc1; 2Nal = N[C@@H](Cc1ccc2ccccc2c1)C(=O)O; dGla = N[C@H](CC(C(=O)O)C(=O)O)C(=O)O; Cha = N[C@@H](CC1CCCCC1)C(=O)O

Tests used:
[1] = target: T1, NS3 (Hepatitis C virus, UniProt A3EZJ3); test: Inhibitory activity against hepatitis C virus (HCV) NS3 protease (full-length); parameters: species or system Hepacivirus hominis
T1 sequence (A3EZJ3 whole entry, the tested form may be a part): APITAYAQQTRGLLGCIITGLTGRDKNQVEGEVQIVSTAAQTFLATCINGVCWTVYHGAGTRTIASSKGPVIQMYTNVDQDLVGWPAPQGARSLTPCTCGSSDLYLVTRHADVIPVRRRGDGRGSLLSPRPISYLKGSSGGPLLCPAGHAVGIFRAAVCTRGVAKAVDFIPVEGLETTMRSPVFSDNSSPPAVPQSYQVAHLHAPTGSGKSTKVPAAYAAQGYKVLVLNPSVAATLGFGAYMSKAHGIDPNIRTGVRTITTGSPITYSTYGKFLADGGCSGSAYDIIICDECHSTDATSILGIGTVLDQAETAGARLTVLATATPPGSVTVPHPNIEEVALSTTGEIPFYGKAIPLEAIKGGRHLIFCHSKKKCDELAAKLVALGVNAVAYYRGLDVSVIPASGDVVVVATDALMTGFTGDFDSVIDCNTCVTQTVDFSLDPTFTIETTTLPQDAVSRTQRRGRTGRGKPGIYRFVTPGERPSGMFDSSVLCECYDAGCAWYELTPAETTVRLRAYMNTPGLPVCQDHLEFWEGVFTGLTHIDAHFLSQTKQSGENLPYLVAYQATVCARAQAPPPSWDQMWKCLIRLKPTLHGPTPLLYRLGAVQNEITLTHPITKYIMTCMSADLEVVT

[2] = target: T1, NS3; test: Inhibitory activity against hepatitis C virus (HCV) NS3 protease (isolated domain); parameters: species or system Hepacivirus hominis
[3] = target: NS3 (Hepatitis C virus) (UniProt A3EZJ3); test: Inhibitory activity against hepatitis C virus (HCV) NS3 protease (isolated domain) at a concentration of 6 uM; details: Hepacivirus hominis
Chain of NS3 (Hepatitis C virus) (A3EZJ3 as listed by the source): as the sequence (A3EZJ3 whole entry, the tested form may be a part) above

Compound | Ki [1] | Ki [2] | inhibition [3]
CC(C)C[C@H](NC(=O)[C@@H](CCC(=O)O)NC(=O)[C@@H](N)CC(=O)O)C(=O)N[C@@H](CCC(=O)O)C(=O)N[C@@H](CC1CCCCC1)C(=O)N[C@@H](CS)C(=O)O | 1.54 µM |  | 
CC(=O)N[C@@H](CC(=O)O)C(=O)N[C@@H](CCC(=O)O)C(=O)N[C@@H](CC(C)C)C(=O)N[C@@H](CCC(=O)O)C(=O)N[C@@H](CC1CCCCC1)C(=O)N[C@@H](CS)C(=O)O | 0.49 µM | 0.06 µM | 
CC(=O)N[C@@H](CC(=O)O)C(=O)N[C@H](CCC(=O)O)C(=O)N[C@@H](CC(C)C)C(=O)N[C@@H](CCC(=O)O)C(=O)N[C@@H](CC1CCCCC1)C(=O)N[C@@H](CS)C(=O)O | 0.18 µM | 0.023 µM | 
CSCC[C@H](NC(=O)[C@H](CCC(=O)O)NC(=O)[C@H](CC(=O)O)NC(C)=O)C(=O)N[C@@H](CCC(=O)O)C(=O)N[C@@H](Cc1ccc2ccccc2c1)C(=O)N[C@@H](CS)C(=O)O (Ac-DEME[2Nal]C-OH) | 1.04 µM | 0.18 µM | 
CSCC[C@H](NC(=O)[C@H](CCC(=O)O)NC(=O)[C@H](CC(=O)O)NC(C)=O)C(=O)N[C@@H](CCC(=O)O)C(=O)N[C@@H](CC1CCCCC1)C(=O)N[C@@H](CS)C(=O)O (Ac-DEME[Cha]C-OH) | 0.44 µM | 0.4 µM | 
CC(=O)N[C@@H](CC(=O)O)C(=O)N[C@@H](CCC(=O)O)C(=O)N[C@H](C(=O)N[C@@H](CCC(=O)O)C(=O)N[C@@H](CC1CCCCC1)C(=O)N[C@@H](CS)C(=O)O)C(c1ccccc1)c1ccccc1 (Ac-DE[Dip]E[Cha]C-OH) | 0.041 µM | 0.025 µM | 
CC[C@H](C)[C@H](NC(=O)[C@@H](NC(=O)[C@H](CCC(=O)O)NC(=O)[C@H](CC(=O)O)NC(C)=O)C(c1ccccc1)c1ccccc1)C(=O)N[C@@H](CC1CCCCC1)C(=O)N[C@@H](CS)C(=O)O (Ac-DE[Dip]I[Cha]C-OH) | 0.22 µM | 0.03 µM | 
CC(=O)N[C@@H](CC(=O)O)C(=O)N[C@@H](CCC(=O)O)C(=O)N[C@H](C(=O)N[C@@H](CCCCN)C(=O)N[C@@H](CC1CCCCC1)C(=O)N[C@@H](CS)C(=O)O)C(c1ccccc1)c1ccccc1 (Ac-DE[Dip]K[Cha]C-OH) | 1.24 µM |  | 8%
CC[C@H](C)[C@H](NC(=O)[C@H](CC(C)C)NC(=O)[C@@H](CC(C(=O)O)C(=O)O)NC(=O)[C@H](CC(=O)O)NC(C)=O)C(=O)N[C@@H](CC1CCCCC1)C(=O)N[C@@H](CS)C(=O)O (Ac-D[dGla]LI[Cha]C-OH) | 0.012 µM | 0.00075 µM | 
CC(=O)N[C@@H](CCC(=O)O)C(=O)N[C@H](C(=O)N[C@@H](CCC(=O)O)C(=O)N[C@@H](CC1CCCCC1)C(=O)N[C@@H](CS)C(=O)O)C(c1ccccc1)c1ccccc1 (Ac-E[Dip]E[Cha]C-OH) | 0.33 µM | 0.7 µM | 
CC[C@H](C)[C@H](NC(=O)[C@@H](NC(=O)[C@H](CCC(=O)O)NC(C)=O)C(c1ccccc1)c1ccccc1)C(=O)N[C@@H](CC1CCCCC1)C(=O)N[C@@H](CS)C(=O)O (Ac-E[Dip]I[Cha]C-OH) | 1 µM | 1.2 µM | 
CC(=O)N[C@@H](CCC(=O)O)C(=O)N[C@@H](CC1CCCCC1)C(=O)N[C@@H](CS)C(=O)O (Ac-Glu-[Cha]-Cys-OH) | 4.1 µM | 230 µM | 
CC[C@H](C)[C@H](NC(C)=O)C(=O)N[C@@H](CC1CCCCC1)C(=O)N[C@@H](CS)C(=O)O (Ac-Ile-[Cha]-Cys-OH) | 25 µM |  | 
CC(=O)N[C@H](C(=O)N[C@@H](CCC(=O)O)C(=O)N[C@@H](CC1CCCCC1)C(=O)N[C@@H](CS)C(=O)O)C(c1ccccc1)c1ccccc1 (Ac-[Dip]E[Cha]C-OH) | 1.1 µM | 15 µM | 
CC[C@H](C)[C@H](NC(=O)[C@@H](NC(C)=O)C(c1ccccc1)c1ccccc1)C(=O)N[C@@H](CC1CCCCC1)C(=O)N[C@@H](CS)C(=O)O (Ac-[Dip]I[Cha]C-OH) | 2.1 µM | 50 µM | 
Ac-DEMEEC-OH | 0.36 µM | 0.5 µM | 
